Source: ChEMBL document CHEMBL1201862, “PubChem BioAssay data set” (2004)
Activity calls are given as the source filed them.

Tests used:
[1] = biological target: T1, Bcl-2-like protein 10 (Homo sapiens, UniProt Q9HD36); test: displacers of TR3 peptide from Bcl-B, primary screen, selectivity assay for Bfl-1 inhibitor project, biochemical, fluorescence polarization, FITC-TR3 peptide (AID 748);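 also: fluorescence polarization from a fluorescein-labelled TR3 peptide binding purified Bcl-B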
T1 sequence (Q9HD36 whole entry): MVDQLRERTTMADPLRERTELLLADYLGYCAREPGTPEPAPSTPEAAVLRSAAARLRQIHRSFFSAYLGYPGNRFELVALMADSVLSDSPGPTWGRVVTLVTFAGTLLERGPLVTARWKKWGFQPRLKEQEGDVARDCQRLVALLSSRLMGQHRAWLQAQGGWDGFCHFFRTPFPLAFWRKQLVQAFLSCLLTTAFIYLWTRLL

[2] = growth suppression of beta-catenin-knockout colon cells, dose response, cell-based, HCT116, human colon tumor (AID 1045); assay type: functional;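 also: HCT116 colon tumor cells with beta catenin knocked out; cells exposed to compound for 60 hours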
[3] = growth suppression of PTEN-null colon cells, dose response, cell-based, HCT116 PTEN knockout (AID 1047); assay type: functional;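 also: HCT116 colon tumor cells with PTEN knocked out; cells exposed to compound for 60 hours before readout; potency for loss of cell viability measured by luminescence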
[4] = Intein inhibitors as potential Tuberculosis drugs, a cytotoxicity screen. [Related pubchem assays (depositor defined):AID2221, AID2223, AID434968, AID435010, AID449749, AID449750, AID489010]; assay type: functional
[5] = biological target: T2, Aminopeptidase N (Plasmodium falciparum FcB1/Columbia, UniProt O96935); test: P. falciparum M1AAP inhibitors, biochemical, fluorogenic H-Leu-NHMec substrate, 1536-well (AID 1445); design: species or system Plasmodium falciparum 3D7, 3D7
T2 sequence (O96935 whole entry): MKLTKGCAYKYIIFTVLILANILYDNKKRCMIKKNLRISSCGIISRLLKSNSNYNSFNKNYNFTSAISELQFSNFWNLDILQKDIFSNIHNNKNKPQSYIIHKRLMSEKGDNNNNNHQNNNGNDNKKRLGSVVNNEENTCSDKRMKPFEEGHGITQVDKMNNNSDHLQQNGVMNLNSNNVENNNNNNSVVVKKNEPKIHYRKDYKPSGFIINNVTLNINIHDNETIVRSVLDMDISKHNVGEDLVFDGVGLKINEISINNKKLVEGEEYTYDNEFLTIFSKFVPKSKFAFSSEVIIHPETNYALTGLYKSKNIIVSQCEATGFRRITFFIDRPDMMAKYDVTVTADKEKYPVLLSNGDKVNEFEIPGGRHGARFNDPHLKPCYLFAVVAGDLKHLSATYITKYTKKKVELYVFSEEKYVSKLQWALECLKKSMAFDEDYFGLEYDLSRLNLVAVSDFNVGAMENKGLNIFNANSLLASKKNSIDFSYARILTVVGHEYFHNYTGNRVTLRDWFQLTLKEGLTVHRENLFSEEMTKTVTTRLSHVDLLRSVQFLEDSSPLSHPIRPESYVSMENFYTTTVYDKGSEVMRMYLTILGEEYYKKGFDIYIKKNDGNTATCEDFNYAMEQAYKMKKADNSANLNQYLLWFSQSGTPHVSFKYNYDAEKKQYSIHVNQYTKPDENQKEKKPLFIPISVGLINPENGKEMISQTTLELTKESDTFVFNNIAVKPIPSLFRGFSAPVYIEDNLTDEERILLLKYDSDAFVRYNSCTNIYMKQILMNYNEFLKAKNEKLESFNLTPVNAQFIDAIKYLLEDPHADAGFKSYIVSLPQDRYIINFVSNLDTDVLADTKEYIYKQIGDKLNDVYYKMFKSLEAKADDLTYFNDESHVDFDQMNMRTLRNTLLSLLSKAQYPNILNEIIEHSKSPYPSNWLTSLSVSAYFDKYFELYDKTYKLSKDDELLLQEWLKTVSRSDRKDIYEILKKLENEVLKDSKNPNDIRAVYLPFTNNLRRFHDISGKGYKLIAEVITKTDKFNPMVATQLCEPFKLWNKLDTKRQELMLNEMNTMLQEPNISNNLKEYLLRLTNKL

[6] = biological target: T3, Protein RecA (Mycobacterium tuberculosis, UniProt P9WHJ3); test: Fluorescence Cell-Free Homogeneous Dose Retest to Identify Inhibitors of RecA-Intein Splicing Activity. [Related pubchem assays (depositor defined):AID2097, AID2223, AID489010, AID492950]; assay type: functional
T3 sequence (P9WHJ3 whole entry): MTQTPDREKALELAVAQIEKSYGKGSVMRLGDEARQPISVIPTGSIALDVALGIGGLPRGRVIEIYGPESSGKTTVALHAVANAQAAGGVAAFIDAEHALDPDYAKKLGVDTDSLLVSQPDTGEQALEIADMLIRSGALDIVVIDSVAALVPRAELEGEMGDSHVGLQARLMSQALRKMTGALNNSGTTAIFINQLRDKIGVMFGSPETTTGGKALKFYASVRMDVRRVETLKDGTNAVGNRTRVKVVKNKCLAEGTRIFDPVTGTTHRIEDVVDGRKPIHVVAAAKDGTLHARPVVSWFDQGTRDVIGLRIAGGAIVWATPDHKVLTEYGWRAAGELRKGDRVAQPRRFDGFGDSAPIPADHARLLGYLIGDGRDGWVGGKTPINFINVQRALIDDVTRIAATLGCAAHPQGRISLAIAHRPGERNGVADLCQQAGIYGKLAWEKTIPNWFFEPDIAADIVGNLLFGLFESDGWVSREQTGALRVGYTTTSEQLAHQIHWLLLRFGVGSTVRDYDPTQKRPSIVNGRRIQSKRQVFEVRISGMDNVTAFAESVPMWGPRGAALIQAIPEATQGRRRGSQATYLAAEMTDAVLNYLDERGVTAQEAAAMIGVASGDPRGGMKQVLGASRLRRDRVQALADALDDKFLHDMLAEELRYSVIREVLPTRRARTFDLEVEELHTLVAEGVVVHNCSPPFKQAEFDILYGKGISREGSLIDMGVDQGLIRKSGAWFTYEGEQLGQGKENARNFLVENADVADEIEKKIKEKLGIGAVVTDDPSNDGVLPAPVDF

[7] = biological target: T4, Replicative DNA helicase DnaB (Mycobacterium tuberculosis, UniProt P9WMR3); test: DnaB intein splicing inhibitors, dose response, biochemical, cell-free fluorescence (AID 449749); assay type: functional
T4 sequence (P9WMR3 whole entry): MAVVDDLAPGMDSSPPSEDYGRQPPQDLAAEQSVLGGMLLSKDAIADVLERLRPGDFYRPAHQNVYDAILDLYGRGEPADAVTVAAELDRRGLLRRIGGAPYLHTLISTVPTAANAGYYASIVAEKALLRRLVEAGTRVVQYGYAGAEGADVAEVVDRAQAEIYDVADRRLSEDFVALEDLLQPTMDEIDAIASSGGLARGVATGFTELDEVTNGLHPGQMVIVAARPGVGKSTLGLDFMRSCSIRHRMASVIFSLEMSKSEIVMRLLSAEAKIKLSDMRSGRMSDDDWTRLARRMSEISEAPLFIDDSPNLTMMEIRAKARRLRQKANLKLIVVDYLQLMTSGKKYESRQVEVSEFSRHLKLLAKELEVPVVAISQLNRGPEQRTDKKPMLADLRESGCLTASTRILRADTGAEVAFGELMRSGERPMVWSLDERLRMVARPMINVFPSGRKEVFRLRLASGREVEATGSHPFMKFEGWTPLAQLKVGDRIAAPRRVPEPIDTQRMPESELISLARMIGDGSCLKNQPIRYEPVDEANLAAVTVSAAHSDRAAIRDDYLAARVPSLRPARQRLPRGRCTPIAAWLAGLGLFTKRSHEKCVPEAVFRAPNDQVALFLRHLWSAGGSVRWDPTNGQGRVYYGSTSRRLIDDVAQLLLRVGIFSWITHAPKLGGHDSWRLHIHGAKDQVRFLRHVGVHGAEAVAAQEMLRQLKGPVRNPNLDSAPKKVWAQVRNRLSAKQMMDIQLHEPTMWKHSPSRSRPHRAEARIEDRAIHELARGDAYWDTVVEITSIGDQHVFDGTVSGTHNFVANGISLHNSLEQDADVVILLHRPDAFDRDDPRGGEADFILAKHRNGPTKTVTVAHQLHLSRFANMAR

[8] = biological target: T5, Coagulation factor XII (Homo sapiens, UniProt P00748); test: Factor XIIa Dose Response Confirmation from Single Well HTS. [Related pubchem assays (depositor defined):AID701]; assay type: functional
T5 sequence (P00748 whole entry): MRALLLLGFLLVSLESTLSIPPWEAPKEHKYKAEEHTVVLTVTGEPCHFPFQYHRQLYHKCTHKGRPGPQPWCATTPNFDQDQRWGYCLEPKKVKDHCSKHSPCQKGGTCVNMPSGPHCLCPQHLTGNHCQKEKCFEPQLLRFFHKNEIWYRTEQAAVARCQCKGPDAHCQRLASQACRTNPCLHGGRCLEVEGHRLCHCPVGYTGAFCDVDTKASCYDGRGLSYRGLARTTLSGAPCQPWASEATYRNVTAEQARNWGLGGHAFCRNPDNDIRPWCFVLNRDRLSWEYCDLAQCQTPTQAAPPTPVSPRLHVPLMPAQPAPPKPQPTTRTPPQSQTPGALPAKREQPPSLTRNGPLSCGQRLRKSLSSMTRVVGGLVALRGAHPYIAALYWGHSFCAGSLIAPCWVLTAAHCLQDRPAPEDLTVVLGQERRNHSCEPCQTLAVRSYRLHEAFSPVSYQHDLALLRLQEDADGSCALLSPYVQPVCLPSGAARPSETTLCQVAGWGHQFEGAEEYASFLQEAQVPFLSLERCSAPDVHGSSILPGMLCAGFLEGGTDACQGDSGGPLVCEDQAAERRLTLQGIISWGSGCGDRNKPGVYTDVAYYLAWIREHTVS

[9] = HEp-2 cell cytotoxicity, dose response, cytotoxicity control for RSV inhibitor project, HTS (AID 2410); assay type: functional; settings: human respiratory syncytial virus
[10] = Luminescence Cell-Based Dose Retest to Confirm Inhibitors of Cancer Stem Cells. [Related pubchem assays (depositor defined):AID2717, AID2721]; assay type: functional; settings: Homo sapiens
[11] = biological target: DNA damage-inducible transcript 3 protein (Mus musculus, UniProt P35639); assay type: functional, Cricetulus griseus
[12] = biological target: X-box-binding protein 1 (Homo sapiens, UniProt P17861); assay type: functional, Cricetulus griseus;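 also: confirmatory dose-response counter-screen serving a CHOP assay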
[13] = biological target: T6, Cannabinoid receptor 1 (Homo sapiens, UniProt P21554); test: SAR analysis of antagonists of the Cannabinoid Receptor 1 using an Image-Based Assay - Set 3. [Related pubchem assays (depositor defined):AID1961, AID1965]; assay type: functional
[14] = biological target: T7, Cannabinoid receptor 2 (Homo sapiens, UniProt P34972); test: SAR analysis of agonists of the Cannabinoid Receptor 2 using an Image-Based Assay - Set 2. [Related pubchem assays (depositor defined):AID1961, AID1965]; assay type: functional
[15] = biological target: T6, Cannabinoid receptor 1; test: SAR analysis of agonists of the Cannabinoid Receptor 1 using an Image-Based Assay - Set 3. [Related pubchem assays (depositor defined):AID1961, AID1965]; assay type: functional
[16] = biological target: T7, Cannabinoid receptor 2; test: SAR analysis of antagonists of the Cannabinoid Receptor 2 using an Image-Based Assay - Set 2. [Related pubchem assays (depositor defined):AID1961, AID1965]; assay type: functional
[17] = biological target: T8, G-protein coupled receptor 35 (Homo sapiens, UniProt Q9HC97); test: SAR analysis of Agonists of the GPR35 Receptor using an Image-Based Assay - Set 3. [Related pubchem assays (depositor defined):AID1961, AID1965]; assay type: functional
[18] = biological target: G-protein coupled receptor 55 (Homo sapiens, UniProt Q9Y2T6); test: SAR analysis of selective Agonists of GPR55 using an Image-Based Assay - Set 2. [Related pubchem assays (depositor defined):AID1961, AID1965]; assay type: functional
[19] = biological target: T8, G-protein coupled receptor 35; test: SAR analysis of Antagonists of the GPR35 Receptor using an Image-Based Assay - Set 4. [Related pubchem assays (depositor defined):[…]]; assay type: functional

T7 sequence (P34972 whole entry): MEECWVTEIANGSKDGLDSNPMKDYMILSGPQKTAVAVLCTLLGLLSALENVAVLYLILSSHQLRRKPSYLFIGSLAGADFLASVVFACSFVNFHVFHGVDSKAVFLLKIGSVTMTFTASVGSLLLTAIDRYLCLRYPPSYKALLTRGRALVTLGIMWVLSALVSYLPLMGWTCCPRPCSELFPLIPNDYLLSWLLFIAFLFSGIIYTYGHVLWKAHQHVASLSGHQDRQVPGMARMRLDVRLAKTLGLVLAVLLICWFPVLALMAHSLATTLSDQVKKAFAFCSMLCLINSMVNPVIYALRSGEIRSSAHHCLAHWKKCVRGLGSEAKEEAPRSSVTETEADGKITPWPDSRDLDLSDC
T8 sequence (Q9HC97 whole entry): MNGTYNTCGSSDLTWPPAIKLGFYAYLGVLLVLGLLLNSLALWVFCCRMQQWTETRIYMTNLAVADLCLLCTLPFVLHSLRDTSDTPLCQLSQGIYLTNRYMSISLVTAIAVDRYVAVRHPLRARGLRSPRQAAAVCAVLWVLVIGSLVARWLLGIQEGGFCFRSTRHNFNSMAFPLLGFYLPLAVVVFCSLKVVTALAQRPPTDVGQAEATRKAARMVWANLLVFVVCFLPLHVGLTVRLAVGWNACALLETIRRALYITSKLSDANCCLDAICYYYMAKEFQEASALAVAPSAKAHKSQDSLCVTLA
T6 sequence (P21554 whole entry): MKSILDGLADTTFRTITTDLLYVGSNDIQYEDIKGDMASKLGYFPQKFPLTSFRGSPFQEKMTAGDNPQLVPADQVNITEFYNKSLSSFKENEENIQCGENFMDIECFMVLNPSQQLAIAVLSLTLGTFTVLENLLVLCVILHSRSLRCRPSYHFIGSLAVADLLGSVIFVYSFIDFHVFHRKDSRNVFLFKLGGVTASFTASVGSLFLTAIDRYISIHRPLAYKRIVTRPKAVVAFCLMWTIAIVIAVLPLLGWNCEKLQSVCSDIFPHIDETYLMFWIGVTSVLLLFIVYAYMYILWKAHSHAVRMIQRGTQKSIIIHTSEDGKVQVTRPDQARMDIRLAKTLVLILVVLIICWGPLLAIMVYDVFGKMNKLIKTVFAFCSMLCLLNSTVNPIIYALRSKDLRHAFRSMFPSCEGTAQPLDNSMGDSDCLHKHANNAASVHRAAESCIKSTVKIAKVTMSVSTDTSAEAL
Sequence of G-protein coupled receptor 55 (Q9Y2T6 whole entry): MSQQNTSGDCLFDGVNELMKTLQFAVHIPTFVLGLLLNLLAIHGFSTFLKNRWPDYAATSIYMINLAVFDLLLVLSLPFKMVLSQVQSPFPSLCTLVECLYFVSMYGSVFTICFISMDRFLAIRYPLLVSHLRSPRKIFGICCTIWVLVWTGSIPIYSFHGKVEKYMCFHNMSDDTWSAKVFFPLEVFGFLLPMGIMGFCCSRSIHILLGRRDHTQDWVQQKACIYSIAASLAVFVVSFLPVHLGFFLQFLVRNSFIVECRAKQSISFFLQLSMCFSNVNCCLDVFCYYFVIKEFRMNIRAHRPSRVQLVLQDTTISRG
Sequence of DNA damage-inducible transcript 3 protein (P35639 whole entry): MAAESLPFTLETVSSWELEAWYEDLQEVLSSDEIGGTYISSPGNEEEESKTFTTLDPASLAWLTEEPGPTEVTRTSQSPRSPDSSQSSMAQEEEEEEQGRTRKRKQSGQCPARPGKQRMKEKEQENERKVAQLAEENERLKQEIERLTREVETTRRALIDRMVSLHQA
Sequence of X-box-binding protein 1 (P17861 whole entry): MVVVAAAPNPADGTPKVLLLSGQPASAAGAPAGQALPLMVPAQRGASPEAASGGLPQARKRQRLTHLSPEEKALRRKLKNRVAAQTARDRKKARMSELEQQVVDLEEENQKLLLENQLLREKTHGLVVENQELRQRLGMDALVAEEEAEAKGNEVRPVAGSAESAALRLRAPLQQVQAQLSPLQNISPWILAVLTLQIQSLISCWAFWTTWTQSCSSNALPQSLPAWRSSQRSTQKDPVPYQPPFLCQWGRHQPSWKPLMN

SMILES: Cc1ccc(O)c(/N=C/C2=C(O)c3ccccc3C2=O)c1
- IC50 [1]: 44.7 µM (active)
- EC50 [2]: 22.2 µM (active)
- EC50 [3]: 32 µM (active)
- CC50 [4]: > 40 µM (active)
- IC50 [5]: 71.9 µM (active)
- EC50 [6]: 0.216 µM (active)
- AC50 [7]: 0.4 µM (active)

SMILES: Cc1ccc(-c2cc(-c3ccccc3)c3c(N)c(S(C)(=O)=O)sc3n2)cc1
- IC50 [8]: > 50 µM (inactive)
- CC50 [9]: 48.4 µM (active)

SMILES: CCCc1ccc(O)c(/N=C/c2cc(Br)cc(OCC)c2O)c1
- AC50 [10]: 9.69 µM (active)
- Absolute IC50 (CHOP) [11]: 10 µM
- Absolute IC50 (XBP1) [12]: 10 µM

SMILES: Cc1ccc2cc(C)c3nnc(SCC(=O)N(C)c4nc(-c5ccccc5)cs4)n3c2c1
- IC50 [13]: 4.44 µM (active)
- EC50 [14]: > 32 µM (inactive)
- EC50 [15]: > 32 µM (inactive)
- IC50 [16]: > 32 µM (inactive)
- EC50 [17]: > 32 µM (inactive)
- EC50 [18]: > 32 µM (inactive)
- IC50 [19]: > 32 µM (inactive)
